From PubChem BioAssay AID2060889 (Molecular Pharmacology Branch, DTP, NCI, 2025)
Each block holds one molecule with its values, some of them ahead of it.

Tested on: LG0567-F671-PDC complex spheroids viability
Experiment: Anticancer human tumor LG0567-F671-PDC patient-derived lung adenocarcinoma cell line growth inhibition [RAS]
Settings: for viability, T/C: stronger effect = lower value
Summary of the method: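 Agents were tested in combination matrices in half-log decrements from a top concentration at or near clinical Cmax (10 microM if undetermined). Targets were multi-cell spheroids of tumour lines plus HUVEC and MSC stromal cells.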

[1] = curve of first compound, second compound 0.000949 µM
[2] = curve of first compound, second compound 0.003 µM
[3] = curve of first compound, second compound 0.00949 µM
[4] = curve of first compound, second compound 0.03 µM
[5] = curve of first compound, second compound 0.0949 µM
[6] = curve of first compound, second compound 0.3 µM
[7] = second compound 0.000949 µM, first compound 0.00316 µM
[8] = second compound 0.000949 µM, first compound 0.01 µM
[9] = second compound 0.000949 µM, first compound 0.0316 µM
[10] = second compound 0.000949 µM, first compound 0.1 µM
[11] = second compound 0.003 µM, first compound 0.00316 µM
[12] = second compound 0.003 µM, first compound 0.01 µM
[13] = second compound 0.003 µM, first compound 0.0316 µM
[14] = second compound 0.003 µM, first compound 0.1 µM
[15] = second compound 0.00949 µM, first compound 0.00316 µM
[16] = second compound 0.00949 µM, first compound 0.01 µM
[17] = second compound 0.00949 µM, first compound 0.0316 µM
[18] = second compound 0.00949 µM, first compound 0.1 µM
[19] = second compound 0.03 µM, first compound 0.00316 µM
[20] = second compound 0.03 µM, first compound 0.01 µM
[21] = second compound 0.03 µM, first compound 0.0316 µM
[22] = second compound 0.03 µM, first compound 0.1 µM
[23] = second compound 0.0949 µM, first compound 0.00316 µM
[24] = second compound 0.0949 µM, first compound 0.01 µM
[25] = second compound 0.0949 µM, first compound 0.0316 µM
[26] = second compound 0.0949 µM, first compound 0.1 µM
[27] = second compound 0.3 µM, first compound 0.00316 µM
[28] = second compound 0.3 µM, first compound 0.01 µM
[29] = second compound 0.3 µM, first compound 0.0316 µM
[30] = second compound 0.3 µM, first compound 0.1 µM
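Further: spheroids exposed to compound for seven days before readout.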
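Wherever IC50 is given: luminescence signal used as a proxy for viable cells.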

SMILES: CC(C)n1nc(-c2ccc3oc(N)nc3c2)c2c(N)ncnc21 + CCn1c(-c2cc(N3CCN(C)CC3)cnc2C(C)OC)c2c3cc(ccc31)-c1csc(n1)CC(NC(=O)C1CC1C)C(=O)N1CCCC(N1)C(=O)OCC(C)(C)C2
IC50 [1]: < 0.316 nM | IC50 [2]: < 0.316 nM | IC50 [3]: < 0.316 nM | IC50 [4]: < 0.316 nM | IC50 [5]: < 0.316 nM | IC50 [6]: < 0.316 nM | viability, T/C (second compound 0.000949 µM, first compound 0.000316 µM): 24.8% | viability, T/C (second compound 0.000949 µM, first compound 0.001 µM): 23.1% | viability, T/C [7]: 18.8% | viability, T/C [8]: 15.1% | viability, T/C [9]: 11.8% | viability, T/C [10]: 7.87% | viability, T/C (second compound 0.003 µM, first compound 0.000316 µM): 12.8% | viability, T/C (second compound 0.003 µM, first compound 0.001 µM): 11.2% | viability, T/C [11]: 8.44% | viability, T/C [12]: 6.54% | viability, T/C [13]: 4.49% | viability, T/C [14]: 3.31% | viability, T/C (second compound 0.00949 µM, first compound 0.000316 µM): 5.79% | viability, T/C (second compound 0.00949 µM, first compound 0.001 µM): 5.54% | viability, T/C [15]: 4.34% | viability, T/C [16]: 5.27% | viability, T/C [17]: 2.11% | viability, T/C [18]: 1.59% | viability, T/C (second compound 0.03 µM, first compound 0.000316 µM): 3.45% | viability, T/C (second compound 0.03 µM, first compound 0.001 µM): 3.53% | viability, T/C [19]: 2.88% | viability, T/C [20]: 2% | viability, T/C [21]: 1.3% | viability, T/C [22]: 1.03% | viability, T/C (second compound 0.0949 µM, first compound 0.000316 µM): 3.67% | viability, T/C (second compound 0.0949 µM, first compound 0.001 µM): 2.67% | viability, T/C [23]: 2.18% | viability, T/C [24]: 1.68% | viability, T/C [25]: 1.09% | viability, T/C [26]: 0.8% | viability, T/C (second compound 0.3 µM, first compound 0.000316 µM): 2.77% | viability, T/C (second compound 0.3 µM, first compound 0.001 µM): 2.43% | viability, T/C [27]: 1.81% | viability, T/C [28]: 1.5% | viability, T/C [29]: 1.12% | viability, T/C [30]: 0.62%

SMILES: CCC(CC)c1cc(NC2CCC(N)C2)n2nccc2n1 (stereo not drawn) + C#Cc1c(F)ccc2cc(O)cc(-c3ncc4c(N5CC6CCC(C5)N6)nc(OCC56CCCN5CC(F)C6)nc4c3F)c12
IC50 (curve of first compound, second compound 0.0316 µM): 1900 nM | IC50 (curve of first compound, second compound 0.1 µM): 1710 nM | IC50 (curve of first compound, second compound 0.316 µM): 1250 nM | IC50 (curve of first compound, second compound 1 µM): < 31.6 nM | IC50 (curve of first compound, second compound 3.16 µM): < 31.6 nM | IC50 (curve of first compound, second compound 10 µM): < 31.6 nM | viability, T/C (second compound 0.0316 µM, first compound 0.0316 µM): 102% | viability, T/C (second compound 0.0316 µM, first compound 0.1 µM): 97.2% | viability, T/C (second compound 0.0316 µM, first compound 0.316 µM): 111% | viability, T/C (second compound 0.0316 µM, first compound 1 µM): 119% | viability, T/C (second compound 0.0316 µM, first compound 3.16 µM): 4.67% | viability, T/C (second compound 0.0316 µM, first compound 10 µM): 0.25% | viability, T/C (second compound 0.1 µM, first compound 0.0316 µM): 78.4% | viability, T/C (second compound 0.1 µM, first compound 0.1 µM): 83.5% | viability, T/C (second compound 0.1 µM, first compound 0.316 µM): 92.2% | viability, T/C (second compound 0.1 µM, first compound 1 µM): 104% | viability, T/C (second compound 0.1 µM, first compound 3.16 µM): 4.32% | viability, T/C (second compound 0.1 µM, first compound 10 µM): 0.47% | viability, T/C (second compound 0.316 µM, first compound 0.0316 µM): 60.3% | viability, T/C (second compound 0.316 µM, first compound 0.1 µM): 57.3% | viability, T/C (second compound 0.316 µM, first compound 0.316 µM): 59.7% | viability, T/C (second compound 0.316 µM, first compound 1 µM): 67.8% | viability, T/C (second compound 0.316 µM, first compound 3.16 µM): 3.78% | viability, T/C (second compound 0.316 µM, first compound 10 µM): 0.39% | viability, T/C (second compound 1 µM, first compound 0.0316 µM): 32.4% | viability, T/C (second compound 1 µM, first compound 0.1 µM): 37% | viability, T/C (second compound 1 µM, first compound 0.316 µM): 43.4% | viability, T/C (second compound 1 µM, first compound 1 µM): 38.2% | viability, T/C (second compound 1 µM, first compound 3.16 µM): 3.47% | viability, T/C (second compound 1 µM, first compound 10 µM): 0.38% | viability, T/C (second compound 3.16 µM, first compound 0.0316 µM): 18.2% | viability, T/C (second compound 3.16 µM, first compound 0.1 µM): 17.8% | viability, T/C (second compound 3.16 µM, first compound 0.316 µM): 20.2% | viability, T/C (second compound 3.16 µM, first compound 1 µM): 17.1% | viability, T/C (second compound 3.16 µM, first compound 3.16 µM): 2.86% | viability, T/C (second compound 3.16 µM, first compound 10 µM): 0.37% | viability, T/C (second compound 10 µM, first compound 0.0316 µM): 10.3% | viability, T/C (second compound 10 µM, first compound 0.1 µM): 11.3% | viability, T/C (second compound 10 µM, first compound 0.316 µM): 10.3% | viability, T/C (second compound 10 µM, first compound 1 µM): 9.32% | viability, T/C (second compound 10 µM, first compound 3.16 µM): 1.25% | viability, T/C (second compound 10 µM, first compound 10 µM): 0.15%

SMILES: CC1(C)CCC(Nc2ncc(C(F)(F)F)c(-c3c[nH]c4c(P(C)(C)=O)c(C#N)ccc34)n2)CN1 (stereo not drawn)
viability, T/C (compound 0.003 µM): 61.7% [middle of 4 runs] | viability, T/C (compound 0.00949 µM): 58.9% [middle of 4 runs] | viability, T/C (compound 0.03 µM): 58.4% [middle of 4 runs] | viability, T/C (compound 0.0949 µM): 60.6% [middle of 4 runs] | viability, T/C (compound 0.3 µM): 58% [middle of 4 runs]

Second part, led by results:

IC50 (compound alone, run of 09/09/2024): 494 nM [middle of 8 runs]
SMILES: C#Cc1c(F)ccc2cc(O)cc(-c3ncc4c(N5CC6CCC(C5)N6)nc(OCC56CCCN5CC(F)C6)nc4c3F)c12 (stereo not drawn)
viability, T/C (compound 0.0316 µM): 91.2% [middle of 8 runs] | viability, T/C (compound 0.1 µM): 80% [middle of 8 runs] | viability, T/C (compound 0.316 µM): 56.1% [middle of 8 runs] | viability, T/C (compound 1 µM): 36.8% [middle of 8 runs] | viability, T/C (compound 3.16 µM): 19.6% [middle of 8 runs] | viability, T/C (compound 10 µM): 12.4% [middle of 8 runs]

IC50 [1]: < 3.16 nM | IC50 [2]: < 3.16 nM | IC50 [3]: < 3.16 nM | IC50 [4]: < 3.16 nM | IC50 [5]: < 3.16 nM | IC50 [6]: < 3.16 nM
SMILES: CCN1CCN(Cc2ccc(Nc3ncc(F)c(-c4cc(F)c5nc(C)n(C(C)C)c5c4)n3)nc2)CC1 + CCn1c(-c2cccnc2C(C)OC)c2c3cc(ccc31)N1CCOC(CC(NC(=O)C(C(C)C)N(C)C(=O)C3(F)CCN(C(=O)C#CC(C)(C)N(C)C)CC3)C(=O)N3CCCC(N3)C(=O)OCC(C)(C)C2)C1
viability, T/C [7]: 15% | viability, T/C [8]: 15.8% | viability, T/C [9]: 14.2% | viability, T/C [10]: 14.7% | viability, T/C (second compound 0.000949 µM, first compound 0.316 µM): 18.1% | viability, T/C (second compound 0.000949 µM, first compound 1 µM): 17.5% | viability, T/C [11]: 14.2% | viability, T/C [12]: 16.5% | viability, T/C [13]: 13% | viability, T/C [14]: 15.9% | viability, T/C (second compound 0.003 µM, first compound 0.316 µM): 18.7% | viability, T/C (second compound 0.003 µM, first compound 1 µM): 19.9% | viability, T/C [15]: 15.2% | viability, T/C [16]: 13.4% | viability, T/C [17]: 14.1% | viability, T/C [18]: 14.8% | viability, T/C (second compound 0.00949 µM, first compound 0.316 µM): 16.5% | viability, T/C (second compound 0.00949 µM, first compound 1 µM): 17.4% | viability, T/C [19]: 13.1% | viability, T/C [20]: 12.9% | viability, T/C [21]: 13.7% | viability, T/C [22]: 13.9% | viability, T/C (second compound 0.03 µM, first compound 0.316 µM): 16.8% | viability, T/C (second compound 0.03 µM, first compound 1 µM): 16.5% | viability, T/C [23]: 16% | viability, T/C [24]: 13.3% | viability, T/C [25]: 11.8% | viability, T/C [26]: 12.2% | viability, T/C (second compound 0.0949 µM, first compound 0.316 µM): 15% | viability, T/C (second compound 0.0949 µM, first compound 1 µM): 15.1% | viability, T/C [27]: 10.5% | viability, T/C [28]: 9.89% | viability, T/C [29]: 10.4% | viability, T/C [30]: 10.7% | viability, T/C (second compound 0.3 µM, first compound 0.316 µM): 13.8% | viability, T/C (second compound 0.3 µM, first compound 1 µM): 11.4%
